Assay results as given in PubChem BioAssay AID248 (DTP/NCI, 2004).
Values joined by “and” are separate entries in the source; they are usually repeats but may differ in a detail not shown here. Equal values may be shown once. Inconclusive results and toxic doses are left out.

Tested on: L1210 leukemia ip in BDF1 mice, survival T/C
Assay: NCI In Vivo Anticancer Drug Screen. Data for tumor model L1210 Leukemia (intraperitoneal) in B6D2F1 (BDF1) mice
Conditions: endpoint: mean survival time, higher = longer survival
Outline: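 Read-out is survival time, reported as the treated-group measurement over the vehicle-control measurement.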

O=C(Nc1ccc(NC2=NCCN2)cc1)c1ccc(C(=O)Nc2ccc(NC3=NCCN3)cc2)cc1 was tested, and the T/C (dose: 0.25 mg/kg/injection, schedule: Q01DX001 (ip), vehicle: saline) was 109 % of control, the T/C (dose: 0.3 mg/kg/injection, schedule: Q#A X Z (ip), vehicle: saline) was 116 % of control and the T/C (dose: 0.45 mg/kg/injection, schedule: Q#A X Z (ip), vehicle: saline) was 122 % of control. The T/C (dose: 0.5 mg/kg/injection, schedule: Q01DX001 (ip), vehicle: saline) was 110 % of control, the T/C (dose: 0.5 mg/kg/injection, schedule: Q07DX Z (ip), vehicle: saline) was 97 % of control and the T/C (dose: 0.63 mg/kg/injection, schedule: Q02DX004 (im), vehicle: saline) was 104 % of control. For the same compound, the T/C (dose: 0.9 mg/kg/injection, schedule: Q01DX Z (ip), vehicle: methylcellulose (MC)) was 104 % of control, the T/C (dose: 0.94 mg/kg/injection, schedule: Q01DX Z (ip), vehicle: saline) was 103 % of control and the T/C (dose: 1.0 mg/kg/injection, schedule: Q01DX001 (ip), vehicle: saline) was 109 % of control. For the same compound, the T/C (dose: 1.0 mg/kg/injection, schedule: Q07DX Z (ip), vehicle: saline) was 106 % of control, the T/C (dose: 1.0 mg/kg/injection, schedule: Q#A X Z (ip), vehicle: saline) was 180 % of control and the T/C (dose: 1.25 mg/kg/injection, schedule: Q01DX Z (ip), vehicle: methylcellulose (MC)) was 109 % of control. The T/C (dose: 1.25 mg/kg/injection, schedule: Q02DX004 (im), vehicle: saline) was 101 % of control, the T/C (dose: 1.3 mg/kg/injection, schedule: Q01DX Z (ip), vehicle: saline) was 120 % of control and the T/C (dose: 1.3 mg/kg/injection, schedule: Q01DX Z (sc), vehicle: saline) was 93 % of control. The T/C (dose: 1.5 mg/kg/injection, schedule: Q#A X Z (ip), vehicle: saline) was 191 % of control, the T/C (dose: 1.8 mg/kg/injection, schedule: Q01DX Z (ip), vehicle: methylcellulose (MC)) was 116 % of control and the T/C (dose: 1.88 mg/kg/injection, schedule: Q01DX Z (ip), vehicle: saline) was 200 % of control. For the same compound, the T/C (dose: 2.0 mg/kg/injection, schedule: Q01DX001 (ip), vehicle: saline) was 113 % of control, the T/C (dose: 2.0 mg/kg/injection, schedule: Q01DX Z (ip), vehicle: saline) was 177 % of control and the T/C (dose: 2.0 mg/kg/injection, schedule: Q01DX Z (sc), vehicle: saline) was 101 % of control. For the same compound, the T/C (dose: 2.0 mg/kg/injection, schedule: Q07DX Z (ip), vehicle: saline) was 103 % of control, the T/C (dose: 2.5 mg/kg/injection, schedule: Q01DX Z (ip), vehicle: methylcellulose (MC)) was 150 % of control and the T/C (dose: 2.5 mg/kg/injection, schedule: Q02DX004 (im), vehicle: saline) was 108 % of control. The T/C (dose: 3.0 mg/kg/injection, schedule: Q01DX Z (ip), vehicle: saline) was 239 % of control, the T/C (dose: 3.0 mg/kg/injection, schedule: Q01DX Z (sc), vehicle: saline) was 113 % of control and the T/C (dose: 3.75 mg/kg/injection, schedule: Q01DX Z (ip), vehicle: saline) was 264 % of control. For the same compound, the T/C (dose: 4.0 mg/kg/injection, schedule: Q01DX001 (ip), vehicle: saline) was 121 % of control, the T/C (dose: 4.0 mg/kg/injection, schedule: Q03DX Z (ip), vehicle: saline) was 121 % of control and the T/C (dose: 5.0 mg/kg/injection, schedule: Q01DX Z (ip), vehicle: methylcellulose (MC)) was 293 % of control. The T/C (dose: 5.0 mg/kg/injection, schedule: Q02DX004 (im), vehicle: saline) was 106 % of control, the T/C (dose: 6.0 mg/kg/injection, schedule: Q03DX Z (ip), vehicle: saline) was 161 % of control and the T/C (dose: 6.0 mg/kg/injection, schedule: Q07DX Z (ip), vehicle: saline) was 198 % of control. The T/C (dose: 7.5 mg/kg/injection, schedule: Q01DX Z (ip), vehicle: methylcellulose (MC)) was 268 % of control, the T/C (dose: 7.5 mg/kg/injection, schedule: Q01DX Z (ip), vehicle: saline) was 265 % of control and the T/C (dose: 8.0 mg/kg/injection, schedule: Q#A X Z (ip), vehicle: saline) was 110 % of control. For the same compound, the T/C (dose: 9.0 mg/kg/injection, schedule: Q07DX Z (ip), vehicle: saline) was 154 % of control and 193 % of control, the T/C (dose: 10.0 mg/kg/injection, schedule: Q01DX001 (im), vehicle: steriod suspending solution) was 103 % of control and the T/C (dose: 10.0 mg/kg/injection, schedule: Q01DX010 (sc), vehicle: olive oil, sesame oil, peanut oil) was 101 % of control and 118 % of control. For the same compound, the T/C (dose: 10.0 mg/kg/injection, schedule: Q01DX Z (ip), vehicle: methylcellulose (MC)) was 200 % of control, the T/C (dose: 10.0 mg/kg/injection, schedule: Q02DX004 (im), vehicle: olive oil, sesame oil, peanut oil) was 153 % of control and the T/C (dose: 12.0 mg/kg/injection, schedule: Q#A X Z (ip), vehicle: saline) was 112 % of control. For the same compound, the T/C (dose: 14.0 mg/kg/injection, schedule: Q07DX Z (ip), vehicle: saline) was 152 % of control, the T/C (dose: 15.0 mg/kg/injection, schedule: Q01DX Z (ip), vehicle: methylcellulose (MC)) was 184 % of control and the T/C (dose: 15.0 mg/kg/injection, schedule: Q01DX Z (ip), vehicle: saline) was 161 % of control. The T/C (dose: 16.0 mg/kg/injection, schedule: Q01DX001 (ip), vehicle: saline) was 155 % of control, the T/C (dose: 16.0 mg/kg/injection, schedule: Q01DX Z (sc), vehicle: saline) was 152 % of control and the T/C (dose: 18.0 mg/kg/injection, schedule: Q01DX001 (ip), vehicle: other) was 172 % of control. For the same compound, the T/C (dose: 18.0 mg/kg/injection, schedule: Q#A X Z (ip), vehicle: saline) was 109 % of control, the T/C (dose: 20.0 mg/kg/injection, schedule: Q01DX010 (sc), vehicle: olive oil, sesame oil, peanut oil) was 87 % of control and the T/C (dose: 20.0 mg/kg/injection, schedule: Q02DX004 (im), vehicle: olive oil, sesame oil, peanut oil) was 175 % of control and 196 % of control. For the same compound, the T/C (dose: 21.0 mg/kg/injection, schedule: Q07DX Z (ip), vehicle: saline) was 184 % of control, the T/C (dose: 24.0 mg/kg/injection, schedule: Q01DX007 (iv), vehicle: saline) was 174 % of control and the T/C (dose: 24.0 mg/kg/injection, schedule: Q01DX Z (ip), vehicle: saline) was 120 % of control. For the same compound, the T/C (dose: 24.0 mg/kg/injection, schedule: Q01DX Z (sc), vehicle: saline) was 113 % of control, the T/C (dose: 26.0 mg/kg/injection, schedule: Q01DX001 (ip), vehicle: carboxymethylcellulose (CMC)) was 210 % of control and the T/C (dose: 26.0 mg/kg/injection, schedule: Q01DX001 (ip), vehicle: other) was 154 % of control and 200 % of control. For the same compound, the T/C (dose: 30.0 mg/kg/injection, schedule: Q01DX Z (ip), vehicle: saline) was 114 % of control, the T/C (dose: 36.0 mg/kg/injection, schedule: Q01DX007 (iv), vehicle: saline) was 210 % of control and the T/C (dose: 36.0 mg/kg/injection, schedule: Q01DX Z (ip), vehicle: saline) was 96 % of control. The T/C (dose: 40.0 mg/kg/injection, schedule: Q01DX001 (im), vehicle: steriod suspending solution) was 176 % of control, the T/C (dose: 40.0 mg/kg/injection, schedule: Q01DX001 (ip), vehicle: carboxymethylcellulose (CMC)) was 194 % of control and 206 % of control and the T/C (dose: 40.0 mg/kg/injection, schedule: Q01DX001 (ip), vehicle: other) was 198 % of control and 201 % of control. For the same compound, the T/C (dose: 40.0 mg/kg/injection, schedule: Q02DX004 (im), vehicle: olive oil, sesame oil, peanut oil) was 109 % of control and 110 % of control, the T/C (dose: 54.0 mg/kg/injection, schedule: Q01DX007 (iv), vehicle: saline) was 233 % of control and the T/C (dose: 60.0 mg/kg/injection, schedule: Q01DX001 (ip), vehicle: carboxymethylcellulose (CMC)) was 251 % of control and 296 % of control. The T/C (dose: 60.0 mg/kg/injection, schedule: Q01DX001 (ip), vehicle: other) was 224 % of control and 297 % of control, the T/C (dose: 60.0 mg/kg/injection, schedule: Q01DX Z (ip), vehicle: saline) was 103 % of control and the T/C (dose: 64.0 mg/kg/injection, schedule: Q01DX010 (oral), vehicle: saline) was 108 % of control. The T/C (dose: 72.0 mg/kg/injection, schedule: Q01DX001 (ip), vehicle: saline) was 215 % of control and 232 % of control and 264 % of control, the T/C (dose: 75.0 mg/kg/injection, schedule: Q01DX Z (oral), vehicle: saline) was 95 % of control and the T/C (dose: 80.0 mg/kg/injection, schedule: Q01DX001 (im), vehicle: saline) was 213 % of control. For the same compound, the T/C (dose: 80.0 mg/kg/injection, schedule: Q01DX001 (im), vehicle: steriod suspending solution) was 211 % of control, the T/C (dose: 80.0 mg/kg/injection, schedule: Q02DX004 (im), vehicle: olive oil, sesame oil, peanut oil) was 87 % of control and the T/C (dose: 81.0 mg/kg/injection, schedule: Q01DX007 (iv), vehicle: saline) was 97 % of control. The T/C (dose: 81.0 mg/kg/injection, schedule: Q01DX Z (ip), vehicle: saline) was 122 % of control, the T/C (dose: 90.0 mg/kg/injection, schedule: Q01DX001 (ip), vehicle: carboxymethylcellulose (CMC)) was 244 % of control and the T/C (dose: 90.0 mg/kg/injection, schedule: Q01DX001 (ip), vehicle: other) was 265 % of control. For the same compound, the T/C (dose: 96.0 mg/kg/injection, schedule: Q01DX010 (oral), vehicle: saline) was 111 % of control, the T/C (dose: 144.0 mg/kg/injection, schedule: Q01DX010 (oral), vehicle: saline) was 97 % of control and 119 % of control and the T/C (dose: 150.0 mg/kg/injection, schedule: Q01DX Z (oral), vehicle: saline) was 101 % of control. The T/C (dose: 160.0 mg/kg/injection, schedule: Q01DX001 (im), vehicle: saline) was 243 % of control, the T/C (dose: 320.0 mg/kg/injection, schedule: Q01DX001 (im), vehicle: saline) was 271 % of control and the T/C (dose: 576.0 mg/kg/injection, schedule: Q01DX001 (ip), vehicle: saline) was 110 % of control. The T/C (dose: 576.0 mg/kg/injection, schedule: Q01DX010 (oral), vehicle: saline) was 116 % of control and the T/C (dose: 600.0 mg/kg/injection, schedule: Q01DX Z (oral), vehicle: saline) was 122 % of control.
